Measured values reported in US4751026A, “Substituted anilides of oleic, linoleic, or linolenic acid as inhibitors of acyl-coa:cholesterol acyltransferase” (Warner-Lambert Company, priority 1987, dated 1988).

What was measured:
[1] = target: T1, acyl-CoA:cholesterol acyltransferase (ACAT) (Oryctolagus cuniculus, UniProt G1SFD9); test: In vitro inhibition of ACAT: radio-labeled cholesterol oleate formed from radio-labeled oleic acid in rabbit intestinal microsomes; format: biochemical; details: inhibition of acylation of cholesterol by oleic acid
T1 construct: in a tissue preparation containing rabbit intestinal microsomes; from tissue; host or cells: rabbit intestine, microsomes
T1 sequence (G1SFD9 1-524): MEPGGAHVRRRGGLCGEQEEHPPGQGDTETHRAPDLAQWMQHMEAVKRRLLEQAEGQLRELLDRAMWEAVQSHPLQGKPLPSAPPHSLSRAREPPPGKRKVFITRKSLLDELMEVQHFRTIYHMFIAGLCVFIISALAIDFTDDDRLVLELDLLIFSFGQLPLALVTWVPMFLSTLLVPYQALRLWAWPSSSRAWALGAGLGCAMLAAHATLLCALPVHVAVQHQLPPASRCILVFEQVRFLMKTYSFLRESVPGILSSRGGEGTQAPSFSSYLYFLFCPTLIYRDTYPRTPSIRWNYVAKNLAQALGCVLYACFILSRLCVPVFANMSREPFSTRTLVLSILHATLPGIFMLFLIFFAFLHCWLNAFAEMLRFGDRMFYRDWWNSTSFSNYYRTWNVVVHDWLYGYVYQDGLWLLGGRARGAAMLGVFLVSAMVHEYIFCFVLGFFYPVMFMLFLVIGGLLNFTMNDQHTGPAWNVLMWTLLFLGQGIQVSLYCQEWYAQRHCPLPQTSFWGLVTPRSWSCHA
Method: The ability of representative compounds of the present invention to inhibit ACAT was measured using an in vitro test more fully described in Field, F. J. and Salone, R. G., Biochemica et Biophysica 712: 557-570 (1982). The test assesses the ability of a test compound to inhibit the acylation of cholesterol by oleic acid by measuring the amount of radio-labeled cholesterol oleate formed from radio-labeled oleic acid in a tissue preparation containing rabbit intestinal microsomes.
The data appear in Table 1 where they are expressed as IC50 values; i.e. the concentration of test compound required to inhibit 50% […] of the enzyme.

Serum LDL Cholesterol = test: In vivo serum cholesterol lowering in cholesterol-fed rabbits; parameters: species or system Male, New Zealand white rabbits; details: cholesterol-enriched diet, oral 50 mg/kg thirty minutes prior to each meal for seven days, three hours after last meal
Text: Male, New Zealand white rabbits weighing approximately 1 kg were fed a normal diet 40 g per day of rabbit chow (Purina No. 5321, Ralston Purina Co., 711 West Fuesser Road, Mascoutah, Ill., 62224, USA). After six days on this diet, the rabbits were fed 50 g per day for three days of a cholsterol-enriched diet consisting of one part of a cholesterol-containing chow (Purina Catalog No. 841206WLI, 0.25% cholesterol) and two parts of normal chow. Next, the rabbits were fed 60 g per day for four days of a cholsterol-enriched diet consisting of two parts of a cholesterol-containing chow (Purina Catalog No. 814206WLI, 0.25% cholesterol) and one part of normal chow.
After this meal adaptation and cholesterol loading period, the test compounds of this invention were administered to the test animals in oral doses of 50 mg/kg of body weight thirty minutes prior to each meal for seven days. Control animals were administered vehicle only.
The animals were sacrificed three hours after their last meal in the postabsorptive state. Serum cholesterol levels were determined for each animal, and the data appear in Table 2 expressed as percent change in serum cholesterol level compared to control.

Row | IC50 [1] | Compound | Percent Change in Serum LDL Cholesterol From Control (Serum LDL Cholesterol)
1 | 86 nM | CC/C=C\C/C=C\C/C=C\CCCCCCCC(=O)Nc1c(OC)cc(OC)cc1OC [(Z,Z,Z)-N-(2,4,6-Trimethoxyphenyl)-9,12,15-octadecatrienamide] | 
2 | 60 nM | CCCCCCCC/C=C\CCCCCCCC(=O)Nc1c(OC)cc(OC)cc1OC [(Z)-N-(2,4,6-Trimethoxyphenyl)-9-octadecenamide] | -53%
3 | 42 nM | CCCCC/C=C\C/C=C\CCCCCCCC(=O)Nc1c(OC)cc(OC)cc1OC [(Z,Z)-N-(2,4,6-Trimethoxyphenyl)-9,12-octadecadienamide] | 
